Test results taken from patent publication US9486519B2, “Use of FLT3 ligand for enhancing immune responses in RNA immunization” (BioNTech AG, priority 2008, dated 2016).

Experiments:
[1] = system: RNA uptake in the lymph nodes; test: Effect of Poly I:C on RNA uptake in lymph nodes, in-vivo bioluminescence; set-up: species or system C57Bl/6 mice; details: 20 μg s.c.; luciferase-RNA intranodally after 2 or 24 h
Procedure: (e) Effect of Poly I:C on RNA uptake. C57Bl/6 mice (n=4) were injected s.c. with PBS or Poly I:C (20 μg) and after 2 or 24 h, luciferase-RNA was applied intranodally. After 24 h the luciferase signal was quantified in a standard bioluminescence test.
In order to verify to what extent maturing adjuvants can also lead in vivo to a reduction of RNA uptake, we tested the effect of Poly I:C on RNA uptake; cf. FIG. 7(e). For this, C57/Bl6 mice (n=4) were injected s.c. with PBS or Poly I:C (20 μg) and after 2 or 24 h, luciferase-RNA was applied intranodally. The in-vivo bioluminescence was measured after a further 24 h. The mean+SEM is shown.

[2] = system: macropinocytosis; test: RNA uptake in lymph nodes after in vivo Rottlerin pretreatment, in-vivo bioluminescence; set-up: species or system C57Bl/6 mice; details: inguinal lymph nodes pretreated with 10 μM; luciferase-RNA 10 μg intranodally; 24 h
Procedure: To clarify whether macropinocytosis is also the uptake mechanism relevant in vivo for RNA in the lymph node, the inguinal lymph nodes of C57/B16 mice were pretreated with Rottlerin (n=4, 10 μM) and then luciferase-RNA (10 μg) was injected intranodally. After 24 h, the in-vivo bioluminescence signal was measured.

[3] = system: macropinocytosis; test: Intranodal RNA immunization after Rottlerin pretreatment of lymph nodes, tetramer measurement; assay type: in vivo, C57Bl/6 mice; details: SIINFEKL-coding RNA 20 μg intranodally d0 and d3; lymph nodes pretreated
Procedure: (e) C57Bl/6 mice (n=3) were immunized intranodally on d0 and d3 with […]-coding RNA (20 μg). On both days the lymph nodes were pretreated with Rottlerin as described above. On day 8 the success of immunization was quantified by tetramer measurement in the peripheral blood. The success of intranodal RNA immunization correlated directly with the ability of cells to take up RNA by macropinocytosis.
To verify whether the in vivo inhibition of macropinocytosis has an effect on the efficiency of T cell priming after intranodal RNA immunization, C57/B16 mice (n=3) were immunized intranodally on d0 and d3 with […]-coding RNA (20 μg). On both days the lymph nodes were pretreated with Rottlerin as described above. The mean+SEM of the frequency of CD8+ antigen-specific T lymphocytes is shown. […] FIG. 6(e).
The main uptake mechanism of RNA uptake is macropinocytosis.

[4] = system: human iDCs; test: RNA uptake by human iDCs pretreated with macropinocytosis inhibitors, luciferase test; assay type: cell-based; details: 15 min luciferase-RNA or Cy3-RNA
Procedure: (b-c) Human iDCs were pretreated with various inhibitors (dimethyl amiloride, cytochalasin D, LY294002, Rottlerin) and then coincubated for 15 min with luciferase-RNA or Cy3-RNA. After 24 h the luciferase signal was quantified in a standard luminescence test.
To verify whether the macropinocytosis constitutively active in iDCs is relevant for the uptake of naked RNA, human iDCs were pretreated with various inhibitors (dimethyl amiloride, cytochalasin D, LY294002, Rottlerin) and then coincubated for 15 min with luciferase-RNA or Cy3-RNA. After culture for a further 22 h, RNA uptake was quantified in a luciferase test. The mean+SEM is shown. The iDCs coincubated with Cy3-RNA (red) were fixed with paraformaldehyde and counterstained (Hoechst 33342, blue). […] FIG. 6(b-c).

[5] = system: cell populations of the murine lymph node; test: Effects of different Flt3L on the cellular composition in lymph nodes; assay type: in vivo, C57BL/6 mice; details: 0.4 mol i.p. day 0; lymph nodes day 10
Excerpt: On day 10 the lymph nodes of the mice were removed and characterized by flow cytometry. Dendritic cells (DCs (marker: CD11c^+/NK1.1^−)), CD4^+ helper T cells (marker: CD3^+/CD4^+/CD8^−/NK1.1^−), CD8^+ T cells (marker: CD3^+/CD8^+/CD4^−/NK1.1^−), CD19^+ B cells (marker: CD19^+/CD3^−/NK1.1^−).
In this experiment Flt3 ligand (Flt3-IgG4) was compared with commercially available Flt3 preparations with respect to the effect on different cell populations of the murine lymph node. A product recombinantly expressed in bacteria (Peprotech Flt3L; Peprotech, Hamburg, Germany) and a product expressed in human HEK293 cells (Humanzyme Flt3L, Humanzyme; Chicago Ill., U.S.A.) were used as commercially available Flt3 preparations. Human IgG4 (Sigma-Aldrich, Deisenhofen, Germany) served as control.
On day 10 both inguinal lymph nodes of the mice were removed, the cell count determined by means of a Neubauer chamber and the cell populations were characterized by flow cytometry.

[6] = Robinson et al., 2003; cited from earlier work

**Q.** With Poly I:C as the molecule, how does the “RNA uptake (in-vivo bioluminescence)” value [1] read?
**A.** Its value is “sharp reduction in RNA uptake”.

**Q.** For CC(=O)c1c(O)c(C)c(O)c(Cc2c(O)c3c(c(C(=O)/C=C/c4ccccc4)c2O)OC(C)(C)C=C3)c1O [Rottlerin], which “RNA uptake in the lymph node” value [2] is on record?
**A.** The value was “drastically reduced”.

**Q.** And the “vaccine action after inhibition of macropinocytosis” value [3]?
**A.** The value was “almost complete loss of vaccine action”.

**Q.** What about the “inhibition of RNA uptake” value [4] of the same molecule?
**A.** Its value is “more than 90%”.

B1: Flt3L (Humanzyme): commercially available Flt3 preparation expressed in human HEK293 cells (Humanzyme) (protein, UniProt P49771 27-235, looked up)
Fms-related tyrosine kinase 3 …: TQDCSFQHSPISSDFAVKIRELSDYLLQDYPVTVASNLQDEELCGGLWRLVLAQRWMERLKTVAGSKMQGLLERVNTEIHFVTKCAFQPPPSCLRFVQTNISRLLQETSEQLVALKPWITRQNFSRCLELQCQPDSSTLPPPWSPRPLEATAPTAPQPPLLLLLLLPVGLLLLAAAWCLHWQRTRRRTPRPGEQVPPVPSPQDLLLVEH
**Q.** With B1 as the molecule, how does the “expansion of dendritic cells” value [5] read?
**A.** The value was “strong similarity”.

B2: Flt3L without IgG4 fusion: Flt3L without IgG4 fusion, published half-life value (Robinson et al., 2003) (protein, UniProt P49771 27-235, looked up)
Fms-related tyrosine kinase 3 …: B1 Fms-related tyrosine kinase 3 …
**Q.** With B2 as the molecule, how does the “published value for the half-life” value [6] read?
**A.** Its value is 5 h.

B3: Flt3L (Peprotech): commercially available Flt3 preparation recombinantly expressed in bacteria (Peprotech) (protein, UniProt P49771 27-235, looked up)
Fms-related tyrosine kinase 3 …: B1 Fms-related tyrosine kinase 3 …
**Q.** Which “expansion of dendritic cells” value [5] does the source give for B3 here?
**A.** The value was “only slightly potent”.
